Measurements from patent US8420777B2, “Compounds that inhibit Hsp90 protein-protein interactions with IAP proteins” (University of Massachusetts, priority 2004, dated 2013).
Values belong to the compound of their own block, whether it stands above or below them. Ends that are not written are not given here. Peptide text beside a SMILES is read from it. * marks the point of attachment. Cbz = O=C(OCc1ccccc1)*; CH2F = FC*

Legend:
[1] = tested on: HeLa cells; test: Apoptosis by hypodiploid DNA content, propidium iodide flow cytometry; type: cell-based, Human; details: 24 hours
Description: For determination of apoptosis by hypodiploid DNA content, various tumor cell lines were incubated with increasing concentrations of the cell permeable control scrambled (SEQ ID NO:25) or Survivin peptide (SEQ ID NO:19), harvested after 24 hours (floaters plus attached cells) fixed in 70% ethanol, and stained with 10 μg/ml propidium iodide plus 100 μg/ml RNAse A and 0.05% Triton™ X-100 in PBS, pH 7.4. Cultures were analyzed for DNA content by flow cytometry. For colorimetric quantification of cell viability, an MTT assay was used. Various tumor cell lines were incubated with increasing concentrations of the cell permeable retro-inverso control scrambled P4 or the Survivin-specific P3 peptide, incubated for 24 hours at 37° C. washed twice with Bruffs Media, and 4,5-dimethylthiazol-2-yl)-2,5-diphenyltetrazolium bromide (MTT) (Sigma, St. Louis, Mo.) was added at 5 mg/ml. Decrease in cell viability was analyzed for loss of colorimetric absorption at OD405.
HeLa cells were incubated with the indicated increasing concentrations of the cell permeable Control (scrambled) or Survivin peptide, harvested after 24 hours at 37° C., and analyzed by hypodiploid DNA content by propidium iodide staining and flow cytometry.
HeLa cells were incubated with chemotherapeutic drugs Taxol™ (10 μM) or adriamycin (300 nM), or cell permeable control peptide or the Survivin peptide, harvested after 24 hours, and analyzed for induction of apoptosis by hypodiploid DNA content by flow cytometry.

[2] = tested on: HeLa cells; test: Proteasome or caspase inhibitor effect on GA-mediated Survivin/XIAP degradation, Western blotting; type: cell-based, Human; details: for reversal of loss of XIAP expression caused by GA: HeLa cell extracts, GA with inhibitor
Description: Extracts from HeLa cells treated with 1 μM GA for 30 hours in the presence or absence of 5 μM of the proteasome inhibitor lactacystin were analyzed for changes in Survivin or β-actin levels by Western blotting. Antibodies to actin were obtained from Sigma. […] Levels of β-actin were unaffected by treatment in this experiment.
HeLa cell extracts were collected after exposure to the indicated concentrations of GA in the absence (None) or in the presence of the proteasome inhibitor, lactacystin or the broad spectrum caspase inhibitor, ZVAD-fink. Loss of XIAP expression in the presence of Hsp90 inhibition by GA is reversed by lactacystin but not ZVAD-fink, as indicated by Western blotting for XIAP depicted in FIG. 5C (* indicates non-specific band).

[3] = molecular target: T1, Hsp90 (Homo sapiens, UniProt P07900); test: Surface plasmon resonance of immobilized biotin peptides with r-Hsp90; type: binding
T1 construct: GST-Hsp90 (amino acids 1-732); GST (N); made in house; host or cells: E. coli
Description: Wild type Survivin peptide 77 to 91 (SEQ ID NO:22) or the corresponding C84A mutant 77-91 peptide (HKKHSSGAAFLSVKK; SEQ ID NO:23) was synthesized with an N-terminal biotin and immobilized on streptavidin coated chips (SA5) purchased from Biacore Inc. (Piscataway, N.J.). Increasing concentrations (100 nM-10 μM) of purified r-Hsp90 suspended in 10 mM HEPES, 150 mM NaCl, 3 mM EDTA, 0.005% polysorbate-20, 1 mM DTT, were then injected in […] over the immobilized peptides. A constant flow rate of […] was maintained, and the dissociation phase was followed for 300 seconds. Surfaces were regenerated using […] of 1 M NaCl/50 mM NaOH after each dissociation phase. A new injection cycle was initiated only after 10 min post-regeneration to ensure complete removal of NaCl and NaOH. The collected data were analyzed using the Biaeval 3.0 software package from Biacore Inc.
Sensorgrams (FIG. 10B) indicate binding of the Survivin peptides to Hsp90, measured by an increase in surface plasmon resonance during analyte flow over the chip surface, with the nonspecific signal from the biotin-only surface subtracted.

[4] = molecular target: T2, Hsp90-Survivin binding interactions (Homo sapiens, UniProt P07900, S63T); test: ELISA: Survivin peptides inhibiting Hsp90 binding to immobilized Survivin; details: 20 μg/ml peptide preincubated with Hsp90, 16 hours, 4° C.
T2 construct: GST-Hsp90 (amino acids 1-732); GST (N); made in house; host or cells: E. coli
Description: ELISA experiments were performed by immobilizing recombinant Survivin (r-Survivin) ([…]) or recombinant Hsp90 (r-Hsp90) (10 μg/ml) on plastic microtiter wells (Immulon™-2, Dynatech Laboratories, Chantilly, Va.) using bicarbonate buffer, pH 9.5 (100 μl/well) for 18 hours at 4° C. Bound protein was blocked with 3% gelatin for 1 hour at 37° C., rinsed with washing buffer (TBS pH 7.4, 0.1% Tween™, 0.1% BSA) and incubated for 1 hour at 37° C. with different concentrations of a test protein to determine if the test protein bound the immobilized protein.
ELISA experiments were performed essentially as in Example 2 with the following variations. 20 μg/ml of each recombinant Survivin peptide (expressed in E. coli) was preincubated with Hsp90 at 2.5 mg/ml for 16 hours at 4° C. After binding and blocking of full length Survivin to wells in a microtiter plate, the preincubated mixtures of Hsp90 and Survivin peptides were added to the wells and incubated for 1 hour at 37° C. Wells were washed, incubated with primary antibody, washed again, and bound antibody was quantified as described above. Each experiment was repeated three times and the standard deviation is shown.

[5] = molecular target: T3, recombinant Hsp90 (Homo sapiens, UniProt P07900, S63T); test: ELISA binding to recombinant Hsp90
T3 construct: GST-Hsp90 (amino acids 1-732); GST (N); made in house; host or cells: E. coli
From the text: (§1) FIG. 31 is a graph depicting Hsp90 binding by Survivin peptides, measured by ELISA. Data are the mean±S.D. of two independent experiments.

[6] = tested on: U937, K562, HL60, THP1 AML cell lines; test: MTT cell viability in AML cell lines; type: cell-based, human
Description: FIG. 30 is a graph depicting killing activity of survivin K79-G83 in AML cells. The indicated human AML cell lines (U937, K562, HL60, and THP1) were incubated with scrambled (SEQ ID NO:28) or Survivin (SEQ ID NO:20) peptides and evaluated for cell viability by MTT.
The effect of the K79-G83 Survivin peptide was characterized in more detail for anti-tumor activity in AML. The K79-L87 (SEQ ID NO:19) and K79-G83 peptides (SEQ ID NO:20) were incubated with AML cells, and cell viability was measured using MTT.

[7] = tested on: HL-60 and THP-1 AML cell lines; test: MTT cell viability, short versus full length peptide; type: cell-based; details: 4×10^5 cells
Description: FIGS. 29B-29D are graphs depicting killing of AML cells by Survivin peptides. FIG. 29B depicts survivin peptide activity in HL-60 cells, measured by Trypan blue exclusion. FIGS. 29C and 29D depict killing, as measured using MTT, of HL-60 (FIG. 29C) or THP-1 (FIG. 29D) cells by full length Survivin peptide (SEQ ID NO:19), Survivin peptide K79-G83 (SEQ ID NO:20), or scrambled peptide (SEQ ID NO:25 and SEQ ID NO:28).
The activity of a shorter Survivin peptide was also tested in an AML cell line. A shorter cell permeable Survivin peptide was synthesized by fusing the third α-helix of the Antennapedia carrier sequence to the amino-terminus of the Survivin peptide sequence K79-G83 (SEQ ID NO:20). […] The scrambled control peptide ([…]; SEQ ID NO:28) was ineffective (FIGS. 29C, D). For these experiments a higher number of cells was used (4×10^5) to produce a 50% killing efficiency by full length survivin peptide.

[8] = molecular target: T4, survivin-Hsp90 (Homo sapiens, UniProt P07900, S63T); test: ELISA inhibition of recombinant survivin binding to Hsp90
T4 construct: GST-Hsp90 (amino acids 1-732); GST (N); made in house; host or cells: E. coli
From the text: as §1

[9] = tested on: HFF, HGF, WS-1 normal cells; test: MTT colorimetric viability assay, normal cell types; type: cell-based, human; details: 24 hours
Description: (§2) FIGS. 22A and 22B compares the effect of P31 (SEQ ID NO:19) or P33 (SEQ ID NO:25) on apoptosis of tumor cell lines (FIG. 22A) and normal cell lines (FIG. 22B). The following tumor cell lines DU145 (prostate cancer, circles), PC3 (prostate cancer, triangles), or HeLa (cervical carcinoma, squares) were treated with the indicated increasing concentrations of P31 peptide (solid symbols) or control P33 peptide (open symbols), harvested after 24 hours, and analyzed for cell viability using an MTT colorimetric assay. For normal cell types (right panel), HFF (human foreskin fibroblasts, squares), HGF (human fibroblasts, triangles) or WS-1 (human epithelial cells, circles) were treated with P31 (solid symbols) or control scrambled peptide P33, harvested after 24 hours and analyzed for overall cell viability by MTT colorimetric assay. All cell lines were from ATCC.

[10] = tested on: HeLa cells; test: Annexin V labeling and propidium iodide multiparametric flow cytometry; type: cell-based, Human; details: increasing concentrations, eight hour incubation, 37° C.
Description: HeLa cell cultures were treated with the indicated increasing concentrations of P31 (Survivin) or P33 (Control; SEQ ID NO:25) peptides, harvested after an eight hour incubation at 37° C., and analyzed for multiparametric flow cytometry of Annexin V labeling (X-axis, a marker of apoptosis) and propidium iodide staining (Y-axis, a marker of cell death).

[11] = tested on: HL-60 cells; test: Cell killing by trypan blue exclusion; type: cell-based
Description: The expression and function of the survivin-Hsp90 pathway in acute myelogenous leukemia (AML) cell lines was analyzed. Survivin was abundantly expressed in four AML cell lines, U937, K-562, THP-1 and HL-60, by Western blotting (FIG. 29A).

[12] = tested on: PC3 cells; test: Immunoblotting of Hsp90 client proteins; type: cell-based; details: 75 and 150 μM, 8 hours
Description: Survivin affects the stability and function of Hsp90 client proteins in tumor cells. PC3 cells were untreated or exposed to 75 and 150 μM concentrations of the survivin peptide (SEQ ID NO:19) (or control scrambled peptide; SEQ ID NO:25) for 8 hours and processed for immunoblotting against the Hsp90 client proteins survivin, AKT, and CDK-6. […] Conversely, the levels of Hsp90, Hsp70, and PCNA were not affected (FIG. 26A).

[13] = tested on: HeLa cells; test: Stability of Hsp90 client proteins and caspase-3 proform, Western blot; type: cell-based, Human; details: increasing concentrations, 24 hours
Description: To determine whether intracellular loading of the Survivin cell permeable peptide reproduced the effect of mAb 8E2 that disrupts the Survivin-Hsp90 interaction in destabilizing Survivin levels in vivo (FIG. 8), HeLa cells were loaded with the indicated increasing concentrations of cell permeable control (SEQ ID NO:25) or Survivin (SEQ ID NO:19) cell permeable peptide, harvested after 24 hours, and analyzed for stability of Hsp90 client proteins, Survivin and Akt. Polyclonal antibody to Akt was obtained from Cell Signaling Technology (Cat. No. 9272).

[14] = tested on: DU145, PC3, HeLa tumor cell lines; test: MTT colorimetric viability assay, tumor cell lines; type: cell-based; details: increasing concentrations, 24 hours
Description: as §2

Compound: CC(=O)O[C@H]1C(=O)[C@@]2(C)[C@H]([C@H](OC(=O)c3ccccc3)[C@]3(O)C[C@H](OC(=O)[C@H](O)[C@@H](NC(=O)c4ccccc4)c4ccccc4)C(C)=C1C3(C)C)[C@]1(OC(C)=O)CO[C@@H]1C[C@@H]2O [Taxol, paclitaxel]
- loss of cell viability by hypodiploid DNA content ([1]; 10 μM): does not result in significant loss of cell viability

Compound: COC(=O)C[C@H](NC(=O)[C@H](C)NC(=O)[C@@H](NC(=O)OCc1ccccc1)C(C)C)C(=O)CF [ZVAD-fink, Z-Val-Ala-Asp (OMe)-CH2F] (Cbz-Val-Ala-Asp(OMe)-CH2F)
- reversal of loss of XIAP expression caused by GA [2]: not

Compound: COc1cccc2c1C(=O)c1c(O)c3c(c(O)c1C2=O)C[C@@](O)(C(=O)CO)C[C@@H]3O[C@H]1C[C@H](N)[C@H](O)[C@H](C)O1 [adriamycin]
- loss of cell viability by hypodiploid DNA content ([1]; 300 nM): does not result in significant loss of cell viability

Compound: CC(=O)N[C@@H](CSC(=O)[C@]1([C@@H](O)C(C)C)NC(=O)[C@H](C)[C@@H]1O)C(=O)O [lactacystin]
- Survivin levels following lactacystin and GA treatment ([2]; 1 μM GA for 30 hours, 5 μM lactacystin): at or above the levels of untreated cells
- reversal of loss of XIAP expression caused by GA [2]: reversed

- on-rates, wild type versus C84A peptide [3]: similar
Compound: HKKHSSGAAFLSVKK (Synthetically generated peptide) [SEQ ID NO:23, C84A mutant 77-91 peptide]

Compound: KHSSGCAFLSVK [SEQ ID NO:3]
- inhibition of Hsp90-Survivin binding interactions [4]: especially effective inhibitor

- binding to recombinant Hsp90 in vitro [5]: comparably bound recombinant Hsp90
Compound: RQIKIWFQNRRMKWKKKHSSG (Synthetically generated peptide) [SEQ ID NO:20]
- cell viability (MTT), killing of AML cell lines [6]: efficiently killed all AML cell lines tested
- reduction of cell viability (MTT) [7]: considerably more active than the P31 peptide
- inhibition of binding of recombinant survivin to Hsp90 [8]: inhibited the binding of recombinant survivin to Hsp90 in a dose-dependent manner

Compound: RQIKIWFQNRRMKWKKSGKHS (Synthetically generated peptide) [SEQ ID NO:28, scrambled control peptide for K79-G83, reference compound]
- cell viability (MTT), killing of AML cell lines [6]: no effect
- reduction of cell viability (MTT) [7]: ineffective

Compound: RQIKIWFQNRRMKWKKSKLACFSHG (Synthetically generated peptide) [P33, reference compound]
- cell death in normal cell types (MTT) [9]: did not induce cell death in cancer or normal cell types
- cell population with hypodiploid DNA content (apoptotic) ([1]; peptides, comparison with chemotherapeutic drugs): not
- induction of apoptosis (Annexin V / propidium iodide) [10]: ineffective
- cell killing (trypan blue exclusion) [11]: ineffective
- cell viability (MTT), killing of AML cell lines [6]: no effect
- Hsp90 client proteins (survivin, Akt, CDK-4, CDK-6) [12]: not
- levels of Survivin and Akt [13]: ineffective
- cell death in cancer cell lines (MTT) [14]: did not induce cell death in cancer or normal cell types
